Patent US12660819B2, “Herbicidal derivatives” (SYNGENTA CROP PROTECTION AG, priority 2020, dated 2026)

Assays:
Type in all cases: in vivo
[1] = test system: Amaranthus palmeri (AMAPA); test: Post-emergence Test (glasshouse, percentage damage to the plant); settings: post-emergence; 1000 g/ha unless otherwise stated; evaluated after 13 days
Procedure, shortened: (§1)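 Seeds are sown in standard soil under controlled glasshouse conditions. The pots are then sprayed at 1000 g/ha, unless otherwise stated, with compound in acetone/water (50:50) containing 0.5% Tween 20. After 13 days further growth, percentage plant damage is scored from 1 (0-20%) to 5 (81-100%).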

[2] = test system: Amaranthus retoflexus (AMARE); test: as above; settings: post-emergence; 1000 g/ha unless otherwise stated; evaluated after 13 days
Procedure, shortened: as §1

[3] = test system: Echinochloa crus-galli (ECHCG); test: as above; settings: post-emergence; 1000 g/ha unless otherwise stated; evaluated after 13 days
Procedure, shortened: as §1

[4] = test system: Ipomoea hederacea (IPOHE); test: as above; settings: post-emergence; 1000 g/ha unless otherwise stated; evaluated after 13 days
Procedure, shortened: (§2)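 Sown pots; spray 1000 g/ha (unless stated) in acetone/water 50:50 + 0.5% Tween 20; glasshouse 24/16 °C, 14 h light, 65% RH; watered twice daily; % damage read at 13 days, scored 1–5.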

[5] = test system: Setaria faberi (SETFA); test: as above; settings: post-emergence; 1000 g/ha unless otherwise stated; evaluated after 13 days
Procedure, shortened: as §2

[6] = test system: Zea mays (ZEAMX); test: as above; settings: post-emergence; 1000 g/ha unless otherwise stated; evaluated after 13 days
Procedure, shortened: as §2

[7] = test system: Amaranthus retoflexus (AMARE); test: Pre-emergence Test (glasshouse, percentage damage to the plant); settings: 1000 g/ha unless otherwise stated, Amaranthus retoflexus
[8] = test system: Setaria faberi (SETFA); test: as above; settings: 1000 g/ha unless otherwise stated, Setaria faberi
[9] = test system: Echinochloa crus-galli (ECHCG); test: as above; settings: 1000 g/ha unless otherwise stated, Echinochloa crus-galli
[10] = test system: Ipomoea hederacea (IPOHE); test: as above; settings: 1000 g/ha unless otherwise stated, Ipomoea hederacea
[11] = test system: Zea mays (ZEAMX); test: as above; settings: 1000 g/ha unless otherwise stated, Zea mays
[12] = test system: Amaranthus palmeri (AMAPA); test: as above; settings: 1000 g/ha unless otherwise stated, Amaranthus palmeri

Structure (SMILES)	AMAPA, percentage damage caused to the plant (five-point scale) [1]	AMARE, percentage damage caused to the plant (five-point scale) [2]	ECHCG, percentage damage caused to the plant (five-point scale) [3]	IPOHE, percentage damage caused to the plant (five-point scale) [4]	SETFA, percentage damage caused to the plant (five-point scale) [5]	ZEAMX, percentage damage caused to the plant (five-point scale) [6]	percentage damage to the plant, AMARE (five-point scale) [7]	percentage damage to the plant, SETFA (five-point scale) [8]	percentage damage to the plant, ECHCG (five-point scale) [9]	percentage damage to the plant, IPOHE (five-point scale) [10]	percentage damage to the plant, ZEAMX (five-point scale) [11]	percentage damage to the plant, AMAPA (five-point scale) [12]
Cc1c(-c2ccc(Cl)cc2Cl)c(=O)c(C(=O)O)c(-c2ccc(Cl)c(Cl)c2)n1C [Compound 251, 5-(2,4-dichlorophenyl)-2-(3,4-dichlorophenyl)-1,6-dimethyl-4-oxo-pyridine-3-carboxylic acid]	3 (3=41-60%)	4 (4=61-80%)	1 (1=0-20%)	0	0	1 (1=0-20%)	1 (1=0-20%)	0	0	0	0	2 (2=21-40%)
CCn1c(C)c(-c2cc(OCC3CC3)c(Cl)cc2F)c(=O)c(C(=O)O)c1-c1ccc(Cl)c(Cl)c1 [Compound 246, 5-[4-chloro-5-(cyclopropylmethoxy)-2-fluoro-phenyl]-2-(3,4-dichlorophenyl)-1-ethyl-6-methyl-4-oxo-pyridine-3-carboxylic acid]	5 (5=81-100%)	5 (5=81-100%)	4 (4=61-80%)	2 (2=21-40%)	3 (3=41-60%)	3 (3=41-60%)	5 (5=81-100%)	2 (2=21-40%)	4 (4=61-80%)	0	0	5 (5=81-100%)
CCn1c(CBr)c(-c2ccc(Cl)cc2)c(=O)c(C(=O)OC)c1-c1ccc(Cl)c(Cl)c1 [Compound 218, methyl 6-(bromomethyl)-5-(4-chlorophenyl)-2-(3,4-dichlorophenyl)-1-ethyl-4-oxo-pyridine-3-carboxylate]	3 (3=41-60%)	3 (3=41-60%)	1 (1=0-20%)	0	2 (2=21-40%)	1 (1=0-20%)	0	0	0	0	0	0
CCn1c(C)c(-c2ccc(Cl)cc2F)c(=O)c(C(=O)O)c1-c1cnc(Cl)c(Cl)c1 [Compound 242, 5-(4-chloro-2-fluoro-phenyl)-2-(5,6-dichloro-3-pyridyl)-1-ethyl-6-methyl-4-oxo-pyridine-3-carboxylic acid]	5 (5=81-100%)	5 (5=81-100%)	5 (5=81-100%)	4 (4=61-80%)	5 (5=81-100%)	4 (4=61-80%)	4 (4=61-80%)	5 (5=81-100%)	5 (5=81-100%)	4 (4=61-80%)	2 (2=21-40%)	5 (5=81-100%)
CCn1c(C)c(-c2cc(OCCOC)c(Cl)cc2F)c(=O)c(C(=O)O)c1-c1ccc(Cl)c(Cl)c1 [Compound 244, 5-[4-chloro-2-fluoro-5-(2-methoxyethoxy)phenyl]-2-(3,4-dichlorophenyl)-1-ethyl-6-methyl-4-oxo-pyridine-3-carboxylic acid]	5 (5=81-100%)	5 (5=81-100%)	5 (5=81-100%)	3 (3=41-60%)	5 (5=81-100%)	5 (5=81-100%)	5 (5=81-100%)	5 (5=81-100%)	5 (5=81-100%)	3 (3=41-60%)	0	5 (5=81-100%)
CCn1c(C)c(-c2ccc(Cl)cc2Cl)c(=O)c(C(=O)O)c1-c1cnc(Cl)c(Cl)c1 [Compound 209, 5-(2,4-dichlorophenyl)-2-(5,6-dichloro-3-pyridyl)-1-ethyl-6-methyl-4-oxo-pyridine-3-carboxylic acid]	5 (5=81-100%)	5 (5=81-100%)	5 (5=81-100%)	4 (4=61-80%)	5 (5=81-100%)	4 (4=61-80%)	5 (5=81-100%)	4 (4=61-80%)	4 (4=61-80%)	1 (1=0-20%)	0	5 (5=81-100%)
CCn1c(C)c(-c2ccc(F)cc2)c(=O)c(C(=O)O)c1-c1cnc(Cl)c(Cl)c1 [Compound 211, 2-(5,6-dichloro-3-pyridyl)-1-ethyl-5-(4-fluorophenyl)-6-methyl-4-oxo-pyridine-3-carboxylic acid]	3 (3=41-60%)	2 (2=21-40%)	1 (1=0-20%)	1 (1=0-20%)	1 (1=0-20%)	1 (1=0-20%)	1 (1=0-20%)	0	1 (1=0-20%)	0	0	4 (4=61-80%)
CCn1c(C)c(-c2cc(OCCOC)c(Cl)cc2F)c(=O)c(C(=O)O)c1-c1ccc(F)c(F)c1 [Compound 261, 5-[4-chloro-2-fluoro-5-(2-methoxyethoxy)phenyl]-2-(3,4-difluorophenyl)-1-ethyl-6-methyl-4-oxo-pyridine-3-carboxylic acid]	4 (4=61-80%)	5 (5=81-100%)	4 (4=61-80%)	2 (2=21-40%)	4 (4=61-80%)	3 (3=41-60%)	4 (4=61-80%)	4 (4=61-80%)	4 (4=61-80%)	4 (4=61-80%)	1 (1=0-20%)	5 (5=81-100%)
CCn1c(C)c(-c2ccc(Cl)cc2)c(=O)c(C(=O)O)c1-c1cnc(Cl)c(Cl)c1 [Compound 208, 5-(4-chlorophenyl)-2-(5,6-dichloro-3-pyridyl)-1-ethyl-6-methyl-4-oxo-pyridine-3-carboxylic acid]	4 (4=61-80%)	4 (4=61-80%)	3 (3=41-60%)	2 (2=21-40%)	5 (5=81-100%)	4 (4=61-80%)	1 (1=0-20%)	2 (2=21-40%)	1 (1=0-20%)	2 (2=21-40%)	0	5 (5=81-100%)
